Reference: patent US10316057B2, “Tandem facial amphiphiles” (WISCONSIN ALUMNI RESEARCH FOUNDATION, priority 2011, dated 2019)
Counter-ions that a name gives are not always drawn.

Columns and labels:
[1] = Hydrodynamic radii of micelles by dynamic light scattering (DLS); assay type: physicochemical; conditions: 0.5 wt % amphiphile in water, 25° C.; mean ± SD, n = 3
Experimental: TFA-0 forms a hydrogel at concentrations >0.4 wt %, and this compound was not studied further. The other three TFAs are soluble to 5-10 wt % in aqueous media. Critical micelle concentrations (CMC) were determined by monitoring solubilization of a hydrophobic fluorescent dye, […] (Chattopadhyay et al., Anal. Biochem. 1984, 139, 408-412), and the hydrodynamic radii (Rh) of the micelles were determined via dynamic light scattering (DLS). Table 1 compares the data for TFAs with those for DDM, a conventional detergent that is very widely used for MP applications; DDM and the TFAs share maltose as their hydrophilic moieties. CMC values of the three TFAs are smaller than that of DDM, whether CMC is measured in units of mM or wt %.
Each TFA and DDM was dissolved in distilled, deionized (DI) water to obtain 1 mL of a solution containing 0.5 wt % amphiphile. Each solution was filtered through a 0.02 μm filter for DLS measurements. A 100-mW, 532-nm laser (Compass 315M-100, Coherent, Santa Clara, Calif.) illuminated a temperature-controlled glass cell at 25° C. that was filled with a refractive-index matching fluid (decahydronaphthalene, Fisher Scientific, Pittsburgh, Pa.). The scattered light was collected at an angle of 90° for about 30 minutes. Rh values were determined using the integrated dynamics software that analyzes the time scale of the scattered light intensity fluctuations by an autocorrelation function. The autocorrelation functions (ACFs) were obtained using a BI-9000AT digital autocorrelator (Brookhaven Instruments, Holtsville, N.Y.). Measurements were repeated three times.

[2] = system: leucine transporter (LeuT WT); test: LeuT functionality assay ([3H]-Leu binding by scintillation proximity assay); set-up: species or system Aquifex aeolicus; conditions: room temperature
Source text: The wild type of bacterial leucine transporter (LeuT WT) was examined because the functional state of this membrane protein is readily assessed by using a scintillation proximity assay (SPA) (Quick et al., Proc. Natl. Acad. Sci. USA 2007, 104, 3603-3608) to monitor binding of radiolabelled leucine. LeuT was initially extracted with DDM and then diluted with amphiphile-containing solutions to generate final TFA concentrations of 0.04 wt % or 0.2 wt % (residual DDM=0.005 wt %). Control samples had 0.05 wt % or 0.2 wt % DDM (overall, the final concentrations were CMC+0.04 wt % or CMC+0.2 wt %).
The wild type of the leucine transporter (LeuT WT) from Aquifex aeolicus was expressed in Escherichia coli essentially as described by Deckert et al. (Nature 392, 353-358 (1998)). The pET16b-LeuT WT-8His plasmid was kindly provided by Dr. Eric Gouaux, Vollum Institute, Portland Oreg. LeuT WT was extracted from isolated bacterial membranes solubilized with 1% DDM, bound to Ni^2+-affinity Chelating Sepharose Fast Flow resin (GE Healthcare, USA), and eluted in buffer consisted of 20 mM Tris-HCl (pH 8.0), 1 mM NaCl, 199 mM KCl, 0.05% DDM and 300 mM imidazole. […] After incubation at room temperature, at the indicated time points, samples were centrifuged and the protein concentration was determined by absorbance measurements at 280 nm. Concomitantly, [^3H]-Leu binding was determined using scintillation proximity assay (SPA) (Quick and Javitch, Proc. Natl. Acad. Sci. USA 104, 3603-3608 (2007)), with the reaction mixture consisted of 5 μL from the respective samples, 33.3 nM [^3H]-Leu (PerkinElmer, USA) and copper chelate (His-Tag) YSi beads (GE Healthcare). […] Normalized results are expressed as mean±SEM (n=2), as illustrated in FIG. 11 (long-term solubility of LeuT WT incubated in the presence of TFA-1, TFA-3, and DDM at (a) CMC+0.04 wt % or (b) CMC+0.2 wt % at room temperature).

Bacteriorhodopsin (bR) = target: T1, Bacteriorhodopsin (bR) (Halobacterium salinarum, UniProt P02945); test: Stabilization assay for bacteriorhodopsin (absorbance at 554 nm); conditions: day 20, room temperature, 0.2 wt % OTG+0.8 wt % TFA
T1 construct: extract bR from the native purple membrane; endogenous in cells
T1 sequence (P02945 14-261 limits assumed): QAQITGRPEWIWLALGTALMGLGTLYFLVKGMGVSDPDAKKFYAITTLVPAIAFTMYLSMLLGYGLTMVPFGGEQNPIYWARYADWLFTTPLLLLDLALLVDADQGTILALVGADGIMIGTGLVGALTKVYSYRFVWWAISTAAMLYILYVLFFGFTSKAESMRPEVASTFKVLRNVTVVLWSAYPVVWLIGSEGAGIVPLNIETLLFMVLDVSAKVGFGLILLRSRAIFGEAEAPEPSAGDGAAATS
Experimental: Bacteriorhodopsin (bR) has been widely employed for assessment of new amphiphiles because this membrane protein is readily available, and stability can be assessed via spectrophotometry (absorbance at 554 nm). Following standard protocols (Bazzacco et al., Biomacromolecules 2009, 10, 3317-3326), 2.0 wt % octyl-β-D-thioglucoside (OTG) was used to extract bR from the native purple membrane. After removal of insoluble debris via ultracentrifugation, the bR solution was diluted with amphiphile-containing solutions to generate samples containing 0.2 wt % OTG+0.8 wt % TFA. A control sample had OTG added to give a total of 1.0 wt %. […] Parallel studies were carried out at different amphiphile concentrations as described in Example 3 below. DDM is not efficient at bR extraction from the native membrane but extracted bR can be stable in the presence of DDM (Milder et al., Biochemistry 1991, 30, 1751-1761).
The general procedure was followed according to the reported protocol of Bazzacco et al. (Biomacromolecules 10, 3317-3326 (2009)). Frozen aliquots of purple membranes containing bR at 184 μM were thawed and solubilized by incubation with octylthioglucoside (OTG) for 24 hr at 4° C. in a dark room. For the solubilization, OTG (CMC=0.28 wt %) was used at 2.0 wt % in 10 mM sodium phosphate (pH 6.9). […] BR stability in each TFA solutions was monitored by measuring absorbance at 554 nm for 20 days.

| SMILES | Rh (nm), hydrodynamic radius of micelles measured by dynamic light scattering [1] [nm] | maintaining LeuT WT function over 12 days ([2]; lower amphiphile concentration, CMC+0.04 wt %) | bR intact (Bacteriorhodopsin (bR)) [%] | maintaining LeuT WT function over 12 days ([2]; higher amphiphile concentration, CMC+0.2 wt %) |
| --- | --- | --- | --- | --- |
| CCCCCCCCCCCCO[C@@H]1O[C@H](CO)[C@@H](O[C@H]2O[C@H](CO)[C@@H](O)[C@H](O)[C@H]2O)[C@H](O)[C@H]1O [DDM, dodecyl-β-D-maltoside, reference compound] | 3.4 ± 0.03 | slightly better than the TFAs |  |  |
| C[C@H](CCC(=O)N(C)CCCN(C)C(=O)CC[C@@H](C)[C@H]1CC[C@H]2[C@@H]3CC[C@@H]4C[C@H](O[C@@H]5O[C@H](CO)[C@@H](O[C@H]6O[C@H](CO)[C@@H](O)[C@H](O)[C@H]6O)[C@H](O)[C@H]5O)CC[C@]4(C)[C@H]3C[C@H](O[C@@H]3O[C@H](CO)[C@@H](O[C@H]4O[C@H](CO)[C@@H](O)[C@H](O)[C@H]4O)[C@H](O)[C@H]3O)[C@]12C)[C@H]1CC[C@H]2[C@@H]3CC[C@@H]4C[C@H](O[C@@H]5O[C@H](CO)[C@@H](O[C@H]6O[C@H](CO)[C@@H](O)[C@H](O)[C@H]6O)[C@H](O)[C@H]5O)CC[C@]4(C)[C@H]3C[C@H](O[C@@H]3O[C@H](CO)[C@@H](O[C@H]4O[C@H](CO)[C@@H](O)[C@H](O)[C@H]4O)[C@H](O)[C@H]3O)[C@]12C [TFA-1] | 1.9 ± 0.08 |  | ~80 | matched DDM at the lower concentration |
